# In US6740759B1, “Method for producing 2-alkyl-4-isothiazoline-3-one” (Chemicrea, Inc., priority 1999, dated 2004):
# Assay: mutagenicity (Ames) testing of the crystals obtained
# Assay type: cell-based
# Set-up: key: A “+” signifies a positive adverse effect on the body; a “−” denotes no adverse effect
# Conditions: crystals obtained in the example
# Protocol: The numbers in the table enclosed by parentheses in the column of solvents used in the reaction denote the molar fraction of the solubility of hydrogen chloride at normal temperature/pressure. The purity of the crystals obtained in Working Examples 1 to 7 and in the Comparative Example was analyzed by high-performance liquid chromatography and submitted to mutagenicity (Ames) testing. A “+” signifies a positive adverse effect on the body while a “−” denotes no adverse effect.
row,Compound,Ames test
1,"Cn1sccc1=O [Working Example 3, 2-methyl-4-isothiazoline-3-one]",−
2,"O=c1ccsn1Cc1ccccc1 [Working Example 7, 2-benzyl-4-isothiazoline-3-one]",−
3,"CCCCCCCCn1sccc1=O [Working Example 4, 2-n-octyl-4-isothiazoline-3-one]",−
